These results are taken from patent publication US10472385B2, “Triterpene-glycosides as sweeteners or sweetener enhancers” (priority 2013, dated 2019).

The test system of this assay is panel of 4 panelists (sweet taste). As to the kind of experiment: Organoleptic test of the compounds of formula (I) against sucrose and mogroside V. The arrangement: key: 3 = sweeter than control, 1 = less sweet than control but still sweet. The format is in vivo. To be noted: compound 0.4 mg/ml (400 ppm) in non-carbonated mineral water; for Organoleptic evaluation compared to mogroside V*: control solution mogroside V 0.1 mg/ml (100 ppm); for Organoleptic evaluation compared to sucrose*: control solution sucrose 20 mg/ml. On the procedure: Organoleptic Test of the Compounds of Formula (I) Against Sucrose and Mogroside V
The isolated pure compounds were dissolved in non-carbonated mineral water (“Fonsana Quelle”) in a concentration of 0.4 mg/ml (400 ppm). The sweet taste of each sample was compared by a panel of 4 panelists with a solution of sucrose in a concentration of 20 mg/ml and with a solution of the known sweetener mogroside V (isolated by AnalytiCon from Momordica grosvenori) in a concentration of 0.1 mg/ml (100 ppm).
The sweetness was evaluated as follows:
3=sweeter than the control solution
1=less sweet than the control solution but still sweet

Structures are written as SMILES.

Consider `C[C@H](CC[C@@H](O[C@@H]1O[C@H](CO[C@@H]2O[C@H](CO)[C@@H](O)[C@H](O)[C@H]2O)[C@@H](O)[C@H](O)[C@H]1O[C@@H]1O[C@H](CO)[C@@H](O)[C@H](O)[C@H]1O)C(C)(C)O)[C@H]1CC[C@@]2(C)C3CC=C4C(CC[C@H](O[C@@H]5O[C@H](CO)[C@@H](O[C@@H]6O[C@H](CO)[C@@H](O)[C@H](O)[C@H]6O)[C@H](O)[C@H]5O)C4(C)C)[C@]3(C)CC[C@]12C` (stereo partly shown) [Compound Cc], for which the “Organoleptic evaluation compared to mogroside V*” value is 3 and the “Organoleptic evaluation compared to sucrose*” value came to 3.

For the compound `C[C@H](CC[C@@H](O[C@@H]1O[C@H](CO)[C@@H](O)[C@H](O)[C@H]1O[C@@H]1O[C@H](CO)[C@@H](O)[C@H](O)[C@H]1O)C(C)(C)O)[C@H]1CC[C@@]2(C)[C@@H]3CC=C4C(CC[C@H](O)C4(C)C)[C@]3(C)[C@H](O)C[C@]12C` (stereo partly drawn) [Compound Aa, (2S,3R,4S,5S,6R)-2-((2S,3R,4S,5S,6R)-2-((3R,6R)-6-((3S,8S,9R,11R,13R,14S,17R)-3,11-dihydroxy-4,4,9,13,14-pentamethyl-2,3,4,7,8,9,10,11,12,13,14,15,16,17-tetradecahydro-1H-cyclopenta[a]phenanthren-17-yl)-2-hydroxy-2-methylheptan-3-yloxy)-4,5-dihydroxy-6-(hydroxymethyl)tetrahydro-2H-pyran-3-yloxy)-6-(hydroxymethyl)tetrahydro-2H-pyran-3,4,5-triol], the “Organoleptic evaluation compared to mogroside V*” value is recorded as 2 and the “Organoleptic evaluation compared to sucrose*” value is listed as 3.

Turning to `C[C@H](CC[C@@H](O[C@@H]1O[C@H](CO)[C@@H](O)[C@H](O)[C@H]1O[C@@H]1O[C@H](CO)[C@@H](O)[C@H](O)[C@H]1O)C(C)(C)O)[C@H]1CC[C@@]2(C)C3CC=C4C(CC[C@H](O[C@@H]5O[C@H](CO)[C@@H](O)[C@H](O)[C@H]5O)C4(C)C)[C@]3(C)CC[C@]12C` (stereo partly shown) [Compound Gg], the “Organoleptic evaluation compared to mogroside V*” value stood at 3 and the “Organoleptic evaluation compared to sucrose*” value is given as 3.

Turning to `C[C@H](CCC(=O)C(C)(C)O)[C@H]1CC[C@@]2(C)C3CC=C4[C@@H](CC[C@H](O[C@@H]5O[C@H](CO[C@@H]6O[C@H](CO)[C@@H](O)[C@H](O)[C@H]6O)[C@@H](O)[C@H](O)[C@H]5O)C4(C)C)[C@]3(C)[C@H](O)C[C@]12C` (stereo partly drawn) [Compound Hh, (6R)-2-hydroxy-6-((3S,9R,10R,11R,13R,14S,17R)-11-hydroxy-4,4,9,13,14-pentamethyl-3-((2R,3R,4S,5S,6R)-3,4,5-trihydroxy-6-(((2R,3R,4S,5S,6R)-3,4,5-trihydroxy-6-(hydroxymethyl)tetrahydro-2H-pyran-2-yloxy)methyl)tetrahydro-2H-pyran-2-yloxy)-2,3,4,7,8,9,10,11,12,13,14,15,16,17-tetradecahydro-1H-cyclopenta[a]phenanthren-17-yl)-2-methylheptan-3-one], the “Organoleptic evaluation compared to mogroside V*” value turned out to be 1 and the “Organoleptic evaluation compared to sucrose*” value came to 2.

On to `C[C@H](CC[C@@H](O[C@@H]1O[C@H](CO[C@@H]2O[C@H](CO)[C@@H](O)[C@H](O)[C@H]2O)[C@@H](O)[C@H](O)[C@H]1O[C@@H]1O[C@H](CO)[C@@H](O)[C@H](O)[C@H]1O)C(C)(C)O)[C@H]1CC[C@@]2(C)[C@@H]3CC=C4C(CC[C@H](O[C@@H]5O[C@H](CO)[C@@H](O)[C@H](O)[C@H]5O)C4(C)C)[C@]3(C)CC[C@]12C` (stereo partly shown) [Compound Ee], for which the “Organoleptic evaluation compared to mogroside V*” value was 3 and the “Organoleptic evaluation compared to sucrose*” value worked out at 3.

On to `C[C@H](CC[C@@H](O[C@@H]1O[C@H](CO[C@@H]2O[C@H](CO)[C@@H](O)[C@H](O)[C@H]2O)[C@@H](O)[C@H](O)[C@H]1O[C@@H]1O[C@H](CO)[C@@H](O)[C@H](O)[C@H]1O)C(C)(C)O)[C@H]1CC[C@@]2(C)C3CC=C4[C@@H](CC[C@H](O[C@@H]5O[C@H](CO)[C@@H](O)[C@H](O)[C@H]5O)C4(C)C)[C@]3(C)C(=O)C[C@]12C` (stereo partly shown) [Compound Ll], for which the “Organoleptic evaluation compared to mogroside V*” value was 3 and the “Organoleptic evaluation compared to sucrose*” value is listed as 3.

Turning to `C[C@H](CC[C@@H](O[C@@H]1O[C@H](CO[C@@H]2O[C@H](CO)[C@@H](O)[C@H](O)[C@H]2O)[C@@H](O)[C@H](O)[C@H]1O[C@@H]1O[C@H](CO)[C@@H](O)[C@H](O)[C@H]1O)C(C)(C)O)[C@H]1CC[C@@]2(C)[C@@H]3CC=C4C(CC[C@H](O[C@@H]5O[C@H](CO)[C@@H](O)[C@H](O)[C@H]5O[C@@H]5O[C@H](CO)[C@@H](O)[C@H](O)[C@H]5O)C4(C)C)[C@]3(C)CC[C@]12C` (stereo partly shown) [Compound Dd], the “Organoleptic evaluation compared to mogroside V*” value is 3 and the “Organoleptic evaluation compared to sucrose*” value worked out at 3.

Consider `C[C@H](CC[C@@H](O[C@@H]1O[C@H](CO[C@@H]2O[C@H](CO)[C@@H](O)[C@H](O)[C@H]2O)[C@@H](O)[C@H](O)[C@H]1O[C@@H]1O[C@H](CO)[C@@H](O)[C@H](O)[C@H]1O)C(C)(C)O)[C@H]1CC[C@@]2(C)[C@@H]3CC=C4[C@@H](CC[C@H](O[C@@H]5O[C@H](CO)[C@@H](O)[C@H](O)[C@H]5O[C@@H]5O[C@H](CO)[C@@H](O)[C@H](O)[C@H]5O)C4(C)C)[C@]3(C)[C@H](O)C[C@]12C` [Compound Ff], for which the “Organoleptic evaluation compared to mogroside V*” value came out at 2 and the “Organoleptic evaluation compared to sucrose*” value came to 3.

On to `C[C@H](CC[C@@H](O[C@@H]1O[C@H](CO[C@@H]2O[C@H](CO)[C@@H](O)[C@H](O)[C@H]2O)[C@@H](O)[C@H](O)[C@H]1O[C@@H]1O[C@H](CO)[C@@H](O)[C@H](O)[C@H]1O)C(C)(C)O)[C@H]1CC[C@@]2(C)C3CC=C4[C@@H](CC[C@H](O)C4(C)C)[C@]3(C)CC[C@]12C` (stereo partly shown) [Compound Kk], for which the “Organoleptic evaluation compared to mogroside V*” value was determined as 1 and the “Organoleptic evaluation compared to sucrose*” value stood at 2.

For `C[C@H](CC[C@@H](O[C@@H]1O[C@H](CO[C@@H]2O[C@H](CO)[C@@H](O)[C@H](O)[C@H]2O)[C@@H](O)[C@H](O)[C@H]1O[C@@H]1O[C@H](CO)[C@@H](O)[C@H](O)[C@H]1O)C(C)(C)O)[C@H]1CC[C@@]2(C)C3CC=C4[C@@H](CC[C@H](O[C@@H]5O[C@H](CO)[C@@H](O)[C@H](O)[C@H]5O)C4(C)C)[C@]3(C)CC[C@]12C` (stereo partly shown) [Compound Mm], the “Organoleptic evaluation compared to mogroside V*” value amounted to 3 and the “Organoleptic evaluation compared to sucrose*” value is given as 3.

In the case of `C[C@H](CC[C@@H](O[C@@H]1O[C@H](CO[C@@H]2O[C@H](CO)[C@@H](O)[C@H](O)[C@H]2O)[C@@H](O)[C@H](O)[C@H]1O[C@@H]1O[C@H](CO)[C@@H](O)[C@H](O)[C@H]1O)C(C)(C)O)[C@H]1CC[C@@]2(C)C3CC=C4[C@@H](CCC(=O)C4(C)C)[C@]3(C)[C@H](O)C[C@]12C` (stereo partly shown) [Compound Jj], the “Organoleptic evaluation compared to mogroside V*” value stood at 2 and the “Organoleptic evaluation compared to sucrose*” value was determined as 3.
